In patent US11739064B2, “HDAC inhibitors and therapeutic methods using the same” (THE BOARD OF TRUSTEES OF THE UNIVERSITY OF ILLINOIS, priority 2015, dated 2023):

Assays:
Human HDAC6 = molecular target: T1, Human HDAC6 (Homo sapiens, UniProt Q9UBN7); test: In vitro HDAC inhibition assay, HDAC6; assay type: biochemical; conditions: read-out: HDAC isoform IC50, HDAC6
T1 construct: Full length with N-terminal GST tag, MW=159 kDa; GST (N); host or cells: baculovirus expression system, Sf9 cells
T1 sequence (Q9UBN7 1-1215): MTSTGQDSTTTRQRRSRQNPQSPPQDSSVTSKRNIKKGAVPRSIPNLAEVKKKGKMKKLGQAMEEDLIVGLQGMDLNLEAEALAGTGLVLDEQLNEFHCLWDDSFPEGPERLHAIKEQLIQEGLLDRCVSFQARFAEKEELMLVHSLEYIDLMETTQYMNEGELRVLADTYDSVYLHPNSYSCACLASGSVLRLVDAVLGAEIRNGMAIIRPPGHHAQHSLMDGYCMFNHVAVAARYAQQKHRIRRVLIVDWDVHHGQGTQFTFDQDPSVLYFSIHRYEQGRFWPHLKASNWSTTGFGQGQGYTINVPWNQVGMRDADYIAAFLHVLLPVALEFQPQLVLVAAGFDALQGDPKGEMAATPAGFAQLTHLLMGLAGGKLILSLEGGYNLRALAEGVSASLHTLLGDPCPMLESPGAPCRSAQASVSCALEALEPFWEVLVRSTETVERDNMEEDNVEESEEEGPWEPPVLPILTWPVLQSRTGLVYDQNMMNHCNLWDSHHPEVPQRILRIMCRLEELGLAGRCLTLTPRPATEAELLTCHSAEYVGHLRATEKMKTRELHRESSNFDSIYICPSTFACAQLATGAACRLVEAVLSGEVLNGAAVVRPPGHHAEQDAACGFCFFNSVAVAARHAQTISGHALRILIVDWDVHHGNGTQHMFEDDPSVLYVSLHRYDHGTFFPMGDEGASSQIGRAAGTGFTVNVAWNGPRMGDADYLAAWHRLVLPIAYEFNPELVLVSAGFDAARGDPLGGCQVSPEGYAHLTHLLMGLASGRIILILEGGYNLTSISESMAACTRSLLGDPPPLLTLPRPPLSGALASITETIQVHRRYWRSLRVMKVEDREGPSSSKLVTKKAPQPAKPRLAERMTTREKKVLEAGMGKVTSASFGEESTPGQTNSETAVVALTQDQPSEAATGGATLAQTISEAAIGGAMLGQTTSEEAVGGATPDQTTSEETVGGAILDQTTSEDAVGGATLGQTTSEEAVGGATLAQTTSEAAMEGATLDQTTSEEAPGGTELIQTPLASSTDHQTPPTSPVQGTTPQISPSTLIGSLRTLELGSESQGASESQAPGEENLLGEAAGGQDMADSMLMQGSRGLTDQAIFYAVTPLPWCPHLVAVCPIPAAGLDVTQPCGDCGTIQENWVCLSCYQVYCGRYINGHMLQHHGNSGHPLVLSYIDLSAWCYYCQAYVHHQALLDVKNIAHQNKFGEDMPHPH

HDAC3/NcoR2 complex = HDAC3/NcoR2 complex (Homo sapiens, UniProt O15379); test: In vitro HDAC inhibition assay, HDAC3; assay type: biochemical; conditions: NI = No inhibition at a concentration of 50 pM (footnote b); read-out: HDAC isoform IC50, HDAC3
HDAC3/NcoR2 complex, sequence (O15379 whole entry, canonical isoform): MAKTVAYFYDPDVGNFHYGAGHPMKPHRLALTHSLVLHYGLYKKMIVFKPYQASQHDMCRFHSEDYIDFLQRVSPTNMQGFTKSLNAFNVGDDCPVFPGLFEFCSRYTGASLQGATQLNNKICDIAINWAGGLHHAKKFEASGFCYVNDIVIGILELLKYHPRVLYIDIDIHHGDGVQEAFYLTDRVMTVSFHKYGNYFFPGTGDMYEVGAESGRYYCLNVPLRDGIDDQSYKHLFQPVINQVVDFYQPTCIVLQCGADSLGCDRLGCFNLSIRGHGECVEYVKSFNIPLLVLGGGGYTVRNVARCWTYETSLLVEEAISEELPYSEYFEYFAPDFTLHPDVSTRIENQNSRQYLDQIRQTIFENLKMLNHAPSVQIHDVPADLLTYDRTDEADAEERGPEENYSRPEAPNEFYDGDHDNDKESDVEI
HDAC3/NcoR2 complex, sequence (Q9Y618 395-489 partner limits assumed): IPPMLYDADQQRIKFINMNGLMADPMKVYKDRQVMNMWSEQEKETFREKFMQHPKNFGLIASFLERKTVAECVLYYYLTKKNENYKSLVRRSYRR

HDAC10 = molecular target: T2, HDAC10 (Homo sapiens, UniProt Q969S8); test: In vitro HDAC inhibition assay, HDAC10; assay type: biochemical; conditions: NI = No inhibition at a concentration of 50 pM (footnote b); read-out: HDAC isoform IC50, HDAC10
T2 sequence (Q969S8 1-669): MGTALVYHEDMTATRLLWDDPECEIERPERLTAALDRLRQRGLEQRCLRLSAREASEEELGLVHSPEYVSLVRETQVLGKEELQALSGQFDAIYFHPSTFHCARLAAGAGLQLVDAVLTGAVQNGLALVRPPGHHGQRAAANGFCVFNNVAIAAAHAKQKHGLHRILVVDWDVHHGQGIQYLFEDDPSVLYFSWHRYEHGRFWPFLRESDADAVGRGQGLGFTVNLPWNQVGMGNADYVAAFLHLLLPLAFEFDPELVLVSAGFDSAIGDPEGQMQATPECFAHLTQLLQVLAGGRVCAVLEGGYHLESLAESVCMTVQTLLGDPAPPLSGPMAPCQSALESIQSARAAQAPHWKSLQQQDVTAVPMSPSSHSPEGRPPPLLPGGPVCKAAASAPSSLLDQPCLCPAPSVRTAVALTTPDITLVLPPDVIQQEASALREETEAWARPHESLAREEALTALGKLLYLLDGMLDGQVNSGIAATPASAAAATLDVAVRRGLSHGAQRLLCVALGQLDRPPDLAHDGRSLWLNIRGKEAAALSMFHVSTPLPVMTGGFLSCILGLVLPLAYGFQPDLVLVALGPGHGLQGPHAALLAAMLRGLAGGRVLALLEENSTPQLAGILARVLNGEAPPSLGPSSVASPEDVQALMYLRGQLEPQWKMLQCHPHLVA

Human HDAC1 = Human HDAC1 (Homo sapiens, UniProt Q13547); test: In vitro HDAC inhibition assay, HDAC1; conditions: read-out: HDAC isoform IC50, HDAC1; NI = No inhibition at a concentration of 50 pM (footnote b)
Human HDAC1, sequence (Q13547 whole entry, canonical isoform): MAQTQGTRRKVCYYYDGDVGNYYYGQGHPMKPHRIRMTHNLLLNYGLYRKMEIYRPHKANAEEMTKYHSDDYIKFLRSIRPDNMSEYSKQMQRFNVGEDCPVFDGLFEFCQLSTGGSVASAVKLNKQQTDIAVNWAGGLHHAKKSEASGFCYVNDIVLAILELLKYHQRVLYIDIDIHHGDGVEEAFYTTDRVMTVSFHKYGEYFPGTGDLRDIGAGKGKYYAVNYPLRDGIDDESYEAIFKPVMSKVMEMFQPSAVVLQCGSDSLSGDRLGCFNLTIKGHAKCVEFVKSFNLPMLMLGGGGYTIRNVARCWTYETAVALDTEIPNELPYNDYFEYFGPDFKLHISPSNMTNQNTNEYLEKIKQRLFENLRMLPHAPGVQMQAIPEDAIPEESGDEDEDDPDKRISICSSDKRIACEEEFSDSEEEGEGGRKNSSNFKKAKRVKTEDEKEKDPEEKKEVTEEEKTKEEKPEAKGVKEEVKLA

BxPC3 = test: In vitro growth inhibition (GI), MTS cell proliferation assay (Table 5), BxPC3; assay type: cell-based; conditions: Homo sapiens, BXPC-3, 72 hours post-treatment
BxPC-3 = test: In vitro growth inhibition of pancreatic cancer cell lines (Table 3), BxPC-3; assay type: cell-based; conditions: Homo sapiens, 72 hours post-treatment, cell viability
Experimental: (§1) In Vitro growth inhibition of pancreatic cancer cell lines. Four of the present HDACIs were analyzed in the [3-(4,5-dimethylthiazol-2-yl)]-2,5-diphenyltetrazolium bromide (MTT) assay in four pancreatic cancer cell lines (Table 3).

[1] = test system: L3.6pl pancreatic cancer cells; test: Apoptosis by Hoechst staining and PARP cleavage; assay type: cell-based; conditions: 10 μM, 24 hours after the initiation of treatment
Experimental: FIG. 3 contains photographs and Western immunoblots showing that HDAC inhibitors of present invention induce apoptosis on L3.6p1 pancreatic cancer cells. L3.6p1 pancreatic cancer cells were treated with 10 μM of compound 1, 2 or 4 for 24 hrs as indicated. Cells were collected and processed to Hoechst staining (upper panel) and cell lysates were prepared for Western immunoblotting (lower panel). 50 μg of proteins were separated by SDS-PAGE, transferred to PVDF membrane, and immunoblotted as indicated.

L3.6pl = test: In vitro growth inhibition (GI), MTS cell proliferation assay (Table 5), L3.6pl; assay type: cell-based; conditions: Homo sapiens, 72 hours post-treatment
HDAC2 = HDAC2 (Homo sapiens, UniProt Q92769); test: In vitro HDAC inhibition assay, HDAC2; assay type: biochemical; conditions: NI = No inhibition at a concentration of 50 pM (footnote b); read-out: HDAC isoform IC50, HDAC2
HDAC2, sequence (Q92769 whole entry, canonical isoform): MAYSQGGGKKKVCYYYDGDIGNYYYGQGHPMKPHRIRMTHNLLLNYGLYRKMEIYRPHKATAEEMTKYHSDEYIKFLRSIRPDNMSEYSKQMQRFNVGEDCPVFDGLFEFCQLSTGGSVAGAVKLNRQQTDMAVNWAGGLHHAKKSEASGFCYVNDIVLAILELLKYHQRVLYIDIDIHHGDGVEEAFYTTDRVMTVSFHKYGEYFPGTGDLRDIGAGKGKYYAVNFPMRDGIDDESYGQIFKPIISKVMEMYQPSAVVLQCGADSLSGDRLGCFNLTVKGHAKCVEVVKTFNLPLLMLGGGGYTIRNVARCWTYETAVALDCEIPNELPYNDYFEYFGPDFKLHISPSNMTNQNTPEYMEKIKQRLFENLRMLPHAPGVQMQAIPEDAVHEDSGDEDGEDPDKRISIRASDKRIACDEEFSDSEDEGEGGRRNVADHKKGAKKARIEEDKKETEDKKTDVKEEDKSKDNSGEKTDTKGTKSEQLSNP

PANC1 = test: In vitro growth inhibition of pancreatic cancer cell lines (Table 3), PANC1; assay type: cell-based; conditions: Homo sapiens, PANC-1; 72 hours post-treatment, cell viability
Experimental: as §1

Mia PaCa-2 = test: In vitro growth inhibition of pancreatic cancer cell lines (Table 3), Mia PaCa-2; assay type: cell-based; conditions: Homo sapiens, 72 hours post-treatment, cell viability
Experimental: as §1

Panc 04.03 = test: In vitro growth inhibition of pancreatic cancer cell lines (Table 3), Panc 04.03; assay type: cell-based; conditions: Homo sapiens, 72 hours post-treatment, cell viability
Experimental: as §1

PANC1 cells [2] = test: Cell cycle analysis; assay type: cell-based; conditions: FIG. 1B, accumulation in the G2/M phase
Source text: This finding is consistent with cell cycle data, which indicate that treatment of pancreatic cancer cells with a present HDACIs results in an accumulation of cells in the G2/M phase of the cell cycle.

PANC1 cells [3] = test: Scratch-wound cell migration assay; assay type: cell-based; design: key to Inhibition of cell migration, 24 h / Inhibition of cell migration, 48 h: Level of inhibition (high to low): +++, ++ or +; Level of inhibition (high to low): +++, ++ or +; Level of inhibition (high to low): +++, ++ or +; no inhibition: −; conditions: for Inhibition of cell migration, 24 h: PANC1, 24 h post wounding; for Inhibition of cell migration, 48 h: PANC1, 48 h post wounding
Experimental: FIG. 2 contains photographs of PANC1 cells treated with present compounds 9 and 6 taken 24 and 48 hours (post wounding) after a scratch was made through a confluent layer of cells; and
PANC1 Cell migration and effect on T and NK Cells. The effect of HDAC6 inhibition on cell migration and cellular cytotoxicity was evaluated. […] Thus, these HDAC6-selective inhibitors could function well to block metastasis. However, in contrast to the effect observed on cell migration, none of the compounds tested affected CD8+ T cell or natural killer (NK) cell-mediated cytotoxicity, despite the ability of the compounds to substantially increase the levels of acetyl-tubulin in these cell lines.

acetylated alpha-tubulin = test: Accumulation of acetylated alpha-tubulin in pancreatic cancer cells; assay type: cell-based; conditions: FIG. 1A
Source text: Cell cycle and inhibition of alpha-tubulin deacetylation.

Row | SMILES | IC50 (Human HDAC6) [µM] | IC50 (HDAC3/NcoR2 complex) [µM] | IC50 (HDAC10) [µM] | IC50 (Human HDAC1) [µM] | GI50 (BxPC3) [µM] | IC50 (BxPC-3) [µM] | Induction of apoptosis (Hoechst staining and PARP cleavage) [1] | GI50 (L3.6pl) [µM] | IC50 (HDAC2) [µM] | IC50 (PANC1) [µM] | IC50 (Mia PaCa-2) [µM] | IC50 (Panc 04.03) [µM] | Cell cycle arrest (PANC1 cells [2]) | Inhibition of cell migration, 24 h (PANC1 cells [3]) | Inhibition of cell migration, 48 h (PANC1 cells [3]) | Accumulation of acetylated alpha-tubulin (acetylated alpha-tubulin)
1 | O=C(CCc1cc(C(=O)NO)no1)Nc1nc(-c2ccccc2)cs1 [Compound 1, 5-[2-(4-Phenyl-thiazol-2-ylcarbamoyl)-ethyl]-isoxazole-3-carboxylic acid hydroxyl amide] | 0.031 | 0.32 | 0.407 | 0.307 | 1.5 | 1 | effectively induced apoptosis | 1.3 | 1.14 |  |  |  |  |  |  | 
2 | O=C(CCCc1cc(C(=O)NO)no1)Nc1nc(-c2ccccc2)cs1 [Compound 2, 5-[3-(4-Phenyl-thiazol-2-ylcarbamoyl)-propyl]-isoxazole-3-carboxylic acid hydroxyamide] | 0.0818 | 0.934 | 0.854 | 0.351 | 2.3 | 20.8 | effectively induced apoptosis | 0.7 | 1.22 | 2.5 | 1.3 | 48.4 |  |  |  | 
3 | CCOC(=O)Nc1ccc(-c2csc(NC(=O)CCCc3cc(C(=O)NO)no3)n2)cc1 [Compound 4, (4-{2-[4-(3-Hydroxycarbamoyl-isoxazol-5-yl)-butyrylamino]-thiazol-4-yl}-phenyl)-carbamic acid ethyl ester] | 0.0489 | 0.354 | 0.323 | 0.2 | 1.7 | 15.2 | effectively induced apoptosis | 1.7 | 0.834 | 11 | 1.9 | 13.5 |  |  |  | 
4 | CC(C)(C)OC(=O)Nc1cccc(-c2cc(C(=O)NCc3ccc(C(=O)NO)cc3)no2)c1 [Compound 14, {3-[3-(4-Hydroxycarbamoyl-benzylcarbamoyl)-isoxazol-5-yl]-phenyl}-carbamic acid tert-butyl ester] | 0.00064 | 0.789 | 2.73 | 0.444 | 7.8 |  |  | > 50 | 1.38 |  |  |  | cell cycle arrest | − | − | accumulation of acetylated alpha-tubulin
5 | CC(C)(C)OC(=O)Nc1ccc(-c2cc(C(=O)NCc3ccc(C(=O)NO)cc3)no2)cc1 [Compound 15, {4-[3-(4-Hydroxycarbamoyl-benzylcarbamoyl)-isoxazol-5-yl]-phenyl}-carbamic acid tert-butyl ester] | 0.00033 | 0.135 | 3.16 | 0.436 | 8.1 |  |  | 2 | 1.9 |  |  |  | cell cycle arrest |  |  | accumulation of acetylated alpha-tubulin
6 | O=C(NO)c1ccc(CNC(=O)c2cc(Cn3c4ccccc4c4ccccc43)on2)cc1 [Compound 18, 5-Carbazol-9-ylmethyl-isoxazole-3-carboxylic acid 4-hydroxycarbamoyl-benzylamide] | 0.0006 | 0.479 | 22.2 | 0.495 | 2.4 |  |  | 1.3 | 1.37 |  |  |  | cell cycle arrest | + | − | accumulation of acetylated alpha-tubulin
